Results on three molecules are retold here after article PMC7567858, “Structure of inhibitor-bound mammalian complex I” (Nature Communications, 2020).

The target of test [1] is T1, NDUFA10 (in mouse complex I) (Mus musculus, UniProt Q99LC3).
T1 construct: supernumerary subunit within native intact complex I from mouse heart mitochondria
T1 sequence (Q99LC3 36-355): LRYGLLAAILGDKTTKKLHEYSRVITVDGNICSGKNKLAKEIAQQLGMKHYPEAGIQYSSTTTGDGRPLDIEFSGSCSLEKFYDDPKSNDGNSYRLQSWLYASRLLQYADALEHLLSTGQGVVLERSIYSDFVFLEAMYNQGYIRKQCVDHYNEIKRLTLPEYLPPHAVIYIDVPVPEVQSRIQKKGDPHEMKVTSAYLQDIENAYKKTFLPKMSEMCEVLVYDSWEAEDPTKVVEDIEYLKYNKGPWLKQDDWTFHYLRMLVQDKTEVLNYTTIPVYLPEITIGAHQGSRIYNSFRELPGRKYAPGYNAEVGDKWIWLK
In words: cryo-EM structure, […] Å. It is filed as binding. Particulars: nucleotide bound to NDUFA10, adenine stacks on Phe134.

The target of test [2] is T2, complex I (NADH:ubiquinone oxidoreductase), bovine (Bos taurus, UniProt P03887+P17694+P42026).
T2 construct: gene NDUFS2; native intact 45-subunit complex I from heart; in proteoliposomes with Q10 and AOX, or detergent-solubilised (EPR sample); with NADH-ubiquinone oxidoreductase chain 2; NADH-ubiquinone oxidoreductase chain 3; NADH-ubiquinone oxidoreductase chain 4; NADH-ubiquinone oxidoreductase chain 4L; NADH-ubiquinone oxidoreductase chain 5; NADH-ubiquinone oxidoreductase chain 6; NADH-ubiquinone oxidoreductase 75 kDa subunit, mitochondrial; NADH dehydrogenase [ubiquinone] flavoprotein 1, mitochondrial; NADH dehydrogenase [ubiquinone] flavoprotein 2, mitochondrial; NADH dehydrogenase [ubiquinone] iron-sulfur protein 3, mitochondrial; NADH dehydrogenase [ubiquinone] iron-sulfur protein 8, mitochondrial
The test is described as follows: NADH oxidation ([…]-380 nm) in complex I-AOX proteoliposomes. It is filed as biochemical. Particulars: Q10 in membrane phase (nmol per mg phospholipid), no piericidin, AOX recycling, 200 uM NADH, pH 7.5, 32 °C.

The target in the next test is T3, mouse complex I (Mus musculus, UniProt P03888+Q91WD5+Q9DC70).
T3 construct: gene Ndufs2; native intact 45-subunit complex I purified from heart mitochondria in DDM; with NADH-ubiquinone oxidoreductase chain 2; NADH-ubiquinone oxidoreductase chain 3; NADH-ubiquinone oxidoreductase chain 4; NADH-ubiquinone oxidoreductase chain 4L; NADH-ubiquinone oxidoreductase chain 5; NADH-ubiquinone oxidoreductase chain 6; NADH-ubiquinone oxidoreductase 75 kDa subunit, mitochondrial; NADH dehydrogenase [ubiquinone] flavoprotein 1, mitochondrial; NADH dehydrogenase [ubiquinone] flavoprotein 2, mitochondrial; NADH dehydrogenase [ubiquinone] iron-sulfur protein 3, mitochondrial; NADH dehydrogenase [ubiquinone] iron-sulfur protein 8, mitochondrial
In words: cryo-EM structure, […] Å. Particulars: ubiquinone-binding site, active state, cluster N2 reduced; NDUFS2 His59 and Tyr108.

For test [3], the target named is T2, complex I (NADH:ubiquinone oxidoreductase), bovine. In words: global kinetic fit of NADH oxidation in proteoliposomes. It is filed as biochemical. Particulars: two-site competitive model; second inhibitor binds more tightly; Q10 varied, AOX recycling, 200 uM NADH, pH 7.5, 32 °C.

T2 sequence (P17694 34-463): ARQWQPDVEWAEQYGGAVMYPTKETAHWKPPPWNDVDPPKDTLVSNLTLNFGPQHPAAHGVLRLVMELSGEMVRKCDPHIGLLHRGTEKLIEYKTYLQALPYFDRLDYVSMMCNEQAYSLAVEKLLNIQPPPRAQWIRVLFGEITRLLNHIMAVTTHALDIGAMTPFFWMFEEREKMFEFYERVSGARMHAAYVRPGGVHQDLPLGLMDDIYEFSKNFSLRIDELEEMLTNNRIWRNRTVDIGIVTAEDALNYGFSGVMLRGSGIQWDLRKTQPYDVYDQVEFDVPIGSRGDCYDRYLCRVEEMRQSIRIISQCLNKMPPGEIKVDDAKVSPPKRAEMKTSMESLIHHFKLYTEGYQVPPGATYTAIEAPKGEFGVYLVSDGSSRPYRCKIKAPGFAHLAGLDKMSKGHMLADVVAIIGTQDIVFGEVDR
T2 sequence (P42026 38-216): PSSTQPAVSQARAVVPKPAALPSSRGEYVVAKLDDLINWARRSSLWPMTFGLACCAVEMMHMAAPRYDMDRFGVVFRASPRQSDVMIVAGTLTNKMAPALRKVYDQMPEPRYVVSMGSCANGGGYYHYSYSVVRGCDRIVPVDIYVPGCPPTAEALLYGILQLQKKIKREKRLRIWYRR
T2 sequence (P03887 whole entry): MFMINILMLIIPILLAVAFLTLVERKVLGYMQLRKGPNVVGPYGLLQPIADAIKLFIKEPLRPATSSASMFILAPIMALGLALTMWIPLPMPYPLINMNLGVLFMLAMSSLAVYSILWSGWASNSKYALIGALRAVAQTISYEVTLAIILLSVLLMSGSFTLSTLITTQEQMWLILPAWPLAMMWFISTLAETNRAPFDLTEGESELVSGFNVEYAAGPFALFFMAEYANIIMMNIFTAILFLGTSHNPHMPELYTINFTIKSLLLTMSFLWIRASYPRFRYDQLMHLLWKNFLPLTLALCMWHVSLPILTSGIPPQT
T3 sequence (Q91WD5 34-463): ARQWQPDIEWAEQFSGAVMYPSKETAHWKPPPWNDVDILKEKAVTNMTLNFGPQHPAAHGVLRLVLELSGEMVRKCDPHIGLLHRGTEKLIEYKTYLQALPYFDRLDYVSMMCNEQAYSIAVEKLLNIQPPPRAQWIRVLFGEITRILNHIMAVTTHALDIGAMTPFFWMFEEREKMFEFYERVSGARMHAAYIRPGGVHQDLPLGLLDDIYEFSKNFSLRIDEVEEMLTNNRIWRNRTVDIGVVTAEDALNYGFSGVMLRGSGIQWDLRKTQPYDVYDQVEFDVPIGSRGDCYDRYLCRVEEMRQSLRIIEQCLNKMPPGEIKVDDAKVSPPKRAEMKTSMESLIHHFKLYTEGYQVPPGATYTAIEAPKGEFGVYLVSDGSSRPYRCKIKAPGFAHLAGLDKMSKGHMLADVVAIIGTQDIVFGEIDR
T3 sequence (Q9DC70 36-224): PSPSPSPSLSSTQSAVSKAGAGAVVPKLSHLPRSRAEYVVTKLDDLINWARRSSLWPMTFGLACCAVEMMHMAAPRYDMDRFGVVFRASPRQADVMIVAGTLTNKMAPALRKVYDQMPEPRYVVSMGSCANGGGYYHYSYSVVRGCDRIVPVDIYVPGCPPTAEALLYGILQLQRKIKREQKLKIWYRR
T3 sequence (P03888 whole entry): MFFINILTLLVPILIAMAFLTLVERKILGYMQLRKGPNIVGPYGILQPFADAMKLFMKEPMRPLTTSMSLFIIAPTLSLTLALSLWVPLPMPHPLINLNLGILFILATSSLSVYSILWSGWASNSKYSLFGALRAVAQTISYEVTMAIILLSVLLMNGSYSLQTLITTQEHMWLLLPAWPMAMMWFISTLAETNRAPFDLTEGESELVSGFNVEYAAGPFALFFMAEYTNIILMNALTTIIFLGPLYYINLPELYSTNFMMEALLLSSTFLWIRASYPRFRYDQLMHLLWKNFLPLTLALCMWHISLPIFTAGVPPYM

`Nc1ncnc2c1ncn2[C@@H]1O[C@H](COP(=O)(O)OP(=O)(O)OP(=O)(O)O)[C@@H](O)[C@H]1O` [ATP]: the “cryo-EM structure, 3.0 Å” value in test [1] is recorded as “replacement of the ADP bound to NDUFA10 with ATP”.
On to `COC1=C(OC)C(=O)C(C/C=C(\C)CC/C=C(\C)CC/C=C(\C)CC/C=C(\C)CC/C=C(\C)CC/C=C(\C)CC/C=C(\C)CC/C=C(\C)CC/C=C(\C)CCC=C(C)C)=C(C)C1=O` [Q10], for which the “KM,app” value in test [2] is reported as “modelled by a series of Michaelis–Menten curves for their Q10 dependence”.
For the molecule `C/C=C(\C)[C@H](O)[C@H](C)/C=C(C)/C=C/C/C(C)=C/Cc1nc(OC)c(OC)c(O)c1C` [piericidin A], the “cryo-EM structure, 3.0 Å” value on mouse complex I is “The piericidin headgroup binds adjacent to NDUFS2 His59 and Tyr108”. Also, the KI result in test [3] was “the second inhibitor binds substantially more tightly than the first”.
